Patent US7268136B2, “Compositions useful as inhibitors of protein kinases” (Vertex Pharmaceuticals Incorporated, priority 2002, dated 2007)

Experiments:
Type in all cases: biochemical
PIM-1 = PIM-1 (Homo sapiens, UniProt P11309); test: Inhibition of PIM-1, standard coupled enzyme assay
Protocol: Reactions were carried out in 100 mM HEPES pH 7.5, 10 mM MgCl2, 25 mM NaCl, 1 mM DTT, 20 μg/ml BSA and 1.5% DMSO. […] Assays were carried out at 30° C. and 50 nM PIM-1.
An assay stock buffer solution was prepared containing all of the reagents listed above, with the exception of PIM-1, DTT, BSA and the test compound of interest. 56 μl of the test reaction was placed in a 384 well plate followed by addition of 1 μl of 2 mM DMSO stock containing the test compound (final compound concentration 30 μM). The plate was preincubated for ˜10 minutes at 30° C. and the reaction initiated by addition of 10 μl of enzyme in DTT and BSA (final concentrations: 50 nM PIM-1, 1 mM DTT, and 20 μg/ml BSA). Rates of reaction were obtained using a BioRad Ultramark plate reader (Hercules, Calif.) over a 5 minute read time at 30° C.

GSK-3β (AA 1-420) = biological target: T1, GSK-3β (AA 1-420) (Homo sapiens, UniProt P49841); test: Inhibition of GSK-3, standard coupled enzyme system; details: 20 μM ATP, 300 μM peptide, 20 nM GSK-3β, 30° C.
T1 construct: GSK-3β (AA 1-420)
T1 sequence (P49841 whole entry, the tested form may be a part): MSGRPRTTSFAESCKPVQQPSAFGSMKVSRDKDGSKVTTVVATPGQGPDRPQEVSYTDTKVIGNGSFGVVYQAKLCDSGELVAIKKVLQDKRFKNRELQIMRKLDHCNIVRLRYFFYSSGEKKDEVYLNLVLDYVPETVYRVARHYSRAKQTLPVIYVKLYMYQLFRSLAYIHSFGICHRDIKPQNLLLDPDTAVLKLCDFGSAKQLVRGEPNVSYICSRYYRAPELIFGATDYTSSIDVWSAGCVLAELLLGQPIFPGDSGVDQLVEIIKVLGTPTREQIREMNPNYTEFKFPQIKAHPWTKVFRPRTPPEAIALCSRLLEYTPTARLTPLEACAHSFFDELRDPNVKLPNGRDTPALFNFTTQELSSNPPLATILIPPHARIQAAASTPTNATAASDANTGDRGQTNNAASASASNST
Protocol: Compounds were screened for their ability to inhibit GSK-3β (AA 1-420) activity using a standard coupled enzyme system (Fox et al. (1998) Protein Sci. 7, 2249). Reactions were carried out in a solution containing 100 mM HEPES (pH 7.5), 10 mM MgCl2, 25 mM NaCl, 300 μM NADH, 1 mM DTT and 1.5% DMSO. Final substrate concentrations in the assay were 20 μM ATP (Sigma Chemicals, St Louis, Mo.) and 300 μM peptide (American Peptide, Sunnyvale, Calif.). Reactions were carried out at 30° C. and 20 nM GSK-3β. Final concentrations of the components of the coupled enzyme system were 2.5 mM phosphoenolpyruvate, 300 μM NADH, 30 μg/ml pyruvate kinase and 10 μg/ml lactate dehydrogenase. An assay stock buffer solution was prepared containing all of the reagents listed above with the exception of ATP and the test compound of interest. The assay stock buffer solution (175 μl) was incubated in a 96 well plate with 5 μl of the test compound of interest at final concentrations spanning 0.002 μM to 30 μM at 30° C. for 10 min. Typically, a 12 point titration was conducted by preparing serial dilutions (from 10 mM compound stocks) with DMSO of the test compounds in daughter plates. The reaction was initiated by the addition of 20 μl of ATP (final concentration 20 μM). Rates of reaction were obtained using a Molecular Devices Spectramax plate reader (Sunnyvale, Calif.) over 10 min at 30° C. The Ki values were determined from the rate data as a function of inhibitor concentration.

human Src kinase = biological target: T2, human Src kinase (Homo sapiens, UniProt P12931); test: Inhibition of SRC, radioactivity-based assay or spectrophotometric assay; details: full length recombinant human Src kinase, poly Glu-Tyr substrate; assay A or B not specified
T2 construct: full length recombinant human Src kinase (from Upstate Biotechnology, cat. no. 14-117); purchased Upstate Biotechnology 14-117; host or cells: baculo viral cells (baculovirus expression)
T2 sequence (P12931 whole entry): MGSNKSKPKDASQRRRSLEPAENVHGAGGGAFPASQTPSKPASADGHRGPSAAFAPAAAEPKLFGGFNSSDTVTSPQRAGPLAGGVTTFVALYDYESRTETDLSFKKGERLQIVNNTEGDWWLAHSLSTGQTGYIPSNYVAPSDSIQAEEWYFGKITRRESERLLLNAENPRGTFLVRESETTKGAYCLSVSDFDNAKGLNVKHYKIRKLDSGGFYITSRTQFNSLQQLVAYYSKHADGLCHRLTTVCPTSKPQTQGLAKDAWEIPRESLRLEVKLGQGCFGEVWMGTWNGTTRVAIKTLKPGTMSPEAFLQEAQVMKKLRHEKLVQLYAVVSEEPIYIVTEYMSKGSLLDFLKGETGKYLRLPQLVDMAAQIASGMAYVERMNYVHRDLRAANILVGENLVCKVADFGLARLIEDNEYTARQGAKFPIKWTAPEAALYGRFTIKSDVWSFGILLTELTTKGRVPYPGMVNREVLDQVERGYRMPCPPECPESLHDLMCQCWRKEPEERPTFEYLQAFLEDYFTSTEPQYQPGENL
Protocol: The compounds are evaluated as inhibitors of human Src kinase using either a radioactivity-based assay or spectrophotometric assay.
Src Inhibition Assay A: Radioactivity-based Assay
The compounds are assayed as inhibitors of full length recombinant human Src kinase (from Upstate Biotechnology, cat. no. 14-117) expressed and purified from baculo viral cells. Src kinase activity is monitored by following the incorporation of ^33P from ATP into the tyrosine of a random poly Glu-Tyr polymer substrate of composition, Glu:Tyr=4:1 (Sigma, cat. no. P-0275). The following are the final concentrations of the assay components: 0.05 M HEPES, pH 7.6, 10 mM MgCl2, 2 mM DTT, 0.25 mg/ml BSA, 10 μM ATP (1-2 μCi ^33P-ATP per reaction), 5 mg/ml poly Glu-Tyr, and 1-2 units of recombinant human Src kinase. In a typical assay, all the reaction components with the exception of ATP are pre-mixed and aliquoted into assay plate wells. Inhibitors dissolved in DMSO are added to the wells to give a final DMSO concentration of 2.5%. The assay plate is incubated at 30° C. for 10 min before initiating the reaction with ^33P-ATP. After 20 min of reaction, the reactions are quenched with 150 μl of 10% trichloroacetic acid (TCA) containing 20 mM Na3PO4. The quenched samples are then transferred to a 96-well filter plate (Whatman, UNI-Filter GF/F Glass Fiber Filter, cat no. 7700-3310) installed on a filter plate vacuum manifold. Filter plates are washed four times with 10% TCA containing 20 mM Na3PO4 and then 4 times with methanol. 200 μl of scintillation fluid is then added to each well. The plates were sealed and the amount of radioactivity associated with the filters is quantified on a TopCount scintillation counter. The radioactivity incorporated is plotted as a function of the inhibitor concentration. The data is fitted to a competitive inhibition kinetics model to get the Ki for the compound.
Src Inhibition Assay B: Spectrophotometric Assay
The ADP produced from ATP by the human recombinant Src kinase-catalyzed phosphorylation of poly Glu-Tyr substrate is quantified using a coupled enzyme assay (Fox et al (1998) Protein Sci 7, 2249). In this assay one molecule of NADH is oxidised to NAD for every molecule of ADP produced in the kinase reaction. The disappearance of NADH is conveniently followed at 340 nm.
The following are the final concentrations of the assay components: 0.025 M HEPES, pH 7.6, 10 mM MgCl2, 2 mM DTT, 0.25 mg/ml poly Glu-Tyr, and 25 nM of recombinant human Src kinase. […]
In a typical assay, all the reaction components with the exception of ATP are pre-mixed and aliquoted into assay plate wells. […] The absorbance change at 340 nm with time, the rate of the reaction, is monitored on a molecular devices plate reader. […]

CDK-2/Cyclin A = CDK-2/Cyclin A (Homo sapiens, UniProt P24941); test: Inhibition of CDK-2, standard coupled enzyme assay; details: 100 μM ATP, 100 μM peptide, 25 nM CDK-2/Cyclin A, 30° C.
Protocol: Compounds were screened for their ability to inhibit CDK-2/Cyclin A using a standard coupled enzyme assay (Fox et al (1998) Protein Sci 7, 2249). Reactions were carried out in 100 mM HEPES pH 7.5, 10 mM MgCl2, 25 mM NaCl, 1 mM DTT and 1.5% DMSO. Final substrate concentrations in the assay were 100 μM ATP (Sigma chemicals) and 100 μM peptide (American Peptide, Sunnyvale, Calif.). Assays were carried out at 30° C. and 25 nM CDK-2/Cyclin A. Final concentrations of the components of the coupled enzyme system were 2.5 mM phosphoenolpyruvate, 350 μM NADH, 30 μg/ml pyruvate kinase and 10 μg/ml lactate dehydrogenase.
An assay stock buffer solution was prepared containing all of the reagents listed above, with the exception of CDK-2/Cyclin A, DTT and the test compound of interest. 56 μl of the test reaction was placed in a 384 well plate followed by addition of 1 μl of 2 mM DMSO stock containing the test compound (final compound concentration 30 μM). The plate was preincubated for ˜10 minutes at 30° C. and the reaction initiated by addition of 10 μl of enzyme (final concentration 25 nM). Rates of reaction were obtained using a BioRad Ultramark plate reader (Hercules, Calif.) over a 5 minute read time at 30° C. Ki values were determined according to standard methods.

Sequence of PIM-1 (P11309 whole entry): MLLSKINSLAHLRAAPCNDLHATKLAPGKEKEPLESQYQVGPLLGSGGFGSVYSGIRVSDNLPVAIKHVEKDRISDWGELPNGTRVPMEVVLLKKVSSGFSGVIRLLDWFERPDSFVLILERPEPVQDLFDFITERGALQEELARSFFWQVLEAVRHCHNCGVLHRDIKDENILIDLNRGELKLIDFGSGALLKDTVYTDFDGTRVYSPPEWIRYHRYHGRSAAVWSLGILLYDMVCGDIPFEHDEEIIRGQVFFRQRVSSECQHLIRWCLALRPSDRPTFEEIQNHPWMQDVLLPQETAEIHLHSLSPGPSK

| IC50 (PIM-1) [nM] | Ki (GSK-3β (AA 1-420)) [nM] | Structure (SMILES) | also measured |
| --- | --- | --- | --- |
| < 1000 | < 2000 | FC(F)(F)c1cccc(-c2nnc3ccc(NC4CC4)nn23)c1 [Compound I-18] |  |
| < 1000 |  | Fc1cccc(-c2nnc3ccc(NC4CC4)nn23)c1 [Compound I-20] |  |
| < 1000 | < 2000 | Fc1ccc(-c2nnc3ccc(NC4CC4)nn23)cc1 [Compound I-21] |  |
| < 1000 |  | COc1ccc(-c2nnc3ccc(NC4CC4)nn23)cc1 [Compound I-24] |  |
| < 1000 |  | FC(F)(F)c1cccc(-c2nnc3ccc(NC4CCC4)nn23)c1 [Compound I-25] | Ki (human Src kinase): < 5000 nM |
|  |  | FC(F)(F)c1cccc(-c2nnc3ccc(NC4CCCCC4)nn23)c1 [Compound I-26] | Ki (human Src kinase): < 5000 nM |
| < 1000 |  | COc1cccc(-c2nnc3ccc(NC4CC4)nn23)c1 [Compound I-28] | Ki (human Src kinase): < 5000 nM |
|  |  | COc1ccccc1-c1nnc2ccc(NC3CC3)nn12 [Compound I-29] | Ki (human Src kinase): < 5000 nM |
|  | < 2000 | N#Cc1ccc(-c2nnc3ccc(NCC(N)=O)nn23)cc1 [Compound I-37] |  |
|  | < 2000 | COc1ccc(-c2nnc3ccc(NCC(N)=O)nn23)cc1 [Compound I-38] |  |
|  | < 2000 | COc1cccc(-c2nnc3ccc(NCC(N)=O)nn23)c1 [Compound I-39] |  |
|  | < 2000 | N#Cc1cccc(-c2nnc3ccc(NCC(N)=O)nn23)c1 [Compound I-40] |  |
|  | < 2000 | COc1ccccc1Nc1nnc2ccc(Sc3ccccc3)nn12 [Compound I-62] |  |
|  | < 2000 | COc1ccc(Nc2nnc3ccc(OC)nn23)cc1 [Compound I-66] |  |
|  |  | COc1ccc2nnc(Nc3ccccc3OC)n2n1 [Compound I-68] | Ki (CDK-2/Cyclin A): < 2000 nM |
|  |  | COc1ccc2nnc(Nc3ccc(C#N)cc3)n2n1 [Compound I-73] | Ki (CDK-2/Cyclin A): < 2000 nM |
|  | < 2000 | COc1ccc(Nc2nnc3ccc(OC)nn23)c(OC)c1 [Compound I-85] |  |
|  | < 2000 | COc1ccc2nnc(Nc3cc(OC)c(OC)c(OC)c3)n2n1 [Compound I-86] |  |
